# Measured values: patent publication US20250262170A1, “COMBINATIONS OF BETA 2-ADRENERGIC RECEPTOR AGONISTS AND BETA 3-ADRENERGIC RECEPTOR AGONISTS, AND MEDICAL USES THEREOF” (ATROGI AB, priority 2022, published 2025)
# Target: T1, β2-adrenergic receptor (Rattus norvegicus, UniProt P10608)
# T1 construct: endogenous in cells; host or cells: L6 myotubes differentiated from L6 myoblasts
# Assay: Glucose uptake in L6-myotubes in the presence of the selective β2-adrenergic receptor antagonist ICI-118551
# Type: cell-based
# Conditions: 3H-2-deoxyglucose, increasing ICI-118551
# Procedure: L6-myoblasts were grown in Dulbecco's Modified Eagle's Medium (DMEM) containing 1 g/L glucose supplemented with 10% fetal bovine serum (FBS), 2 mM L-glutamine, 50 U/mL penicillin, […] streptomycin and 10 mM HEPES. Cells were plated at 1×10^5 cells per mL in 24-well plates. After reaching 90% confluence the cells were grown in medium containing 2% FBS for 7 days where upon cells differentiated into myotubes.
# The differentiated L6-myotubes were serum-starved overnight in medium containing 0.5% fatty-acid free BSA and stimulated with Compounds A and B at a final concentration of 1×10^−5 M in the presence of the selective β2-adrenergic receptor antagonist ICI-118551. After 1 h 40 min the cells were washed with warm, glucose free medium twice and another portion of agonist was added to the glucose free medium. After another 20 min of incubation the cells were exposed to 50 nM ^3H-2-deoxyglucose for 10 min before washed in ice cold glucose free medium three times and lysed in 400 μl/well 0.2 M NaOH for 1 h at 60° C. The cell lysate was mixed with 4 ml scintillation buffer (Emulsifier Safe, Perkin Elmer) and the radioactivity was detected in a […] (Tri-Carb 4810TR, Perkin Elmer).
# T1 sequence (P10608 whole entry): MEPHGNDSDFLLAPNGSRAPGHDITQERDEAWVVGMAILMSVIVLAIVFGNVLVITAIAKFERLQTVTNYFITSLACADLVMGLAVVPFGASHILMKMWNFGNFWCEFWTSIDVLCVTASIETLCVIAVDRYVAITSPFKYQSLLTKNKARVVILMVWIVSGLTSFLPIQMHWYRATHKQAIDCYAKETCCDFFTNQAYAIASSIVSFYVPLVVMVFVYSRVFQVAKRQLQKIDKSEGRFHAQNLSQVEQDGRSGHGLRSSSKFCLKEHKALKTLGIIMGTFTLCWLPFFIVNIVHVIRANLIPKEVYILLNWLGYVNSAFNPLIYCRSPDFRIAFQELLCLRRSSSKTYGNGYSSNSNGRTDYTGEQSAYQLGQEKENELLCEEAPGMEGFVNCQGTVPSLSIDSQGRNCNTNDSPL
row,SMILES,glucose uptake promoted by the agonist in the presence of ICI-118551
1,CC(C)(C)NC[C@H](O)c1cccc(F)c1 [Compound A],inhibited in a dose-dependent manner
2,"CC(C)(C)NCC(O)c1cc(Cl)c(N)c(Cl)c1 (centres unmarked) [clenbuterol, reference compound]",inhibited in a dose-dependent manner
